In brackets after ≈: the same amount, converted by molar mass.
What follows are compounds tested on KB (assay: Cytotoxicity against human KB cells after 72 hrs by neutral red staining).
Type: functional, cell-based
For `COC1=C2c3cc4c(cc3CCN3CCC[C@]23CC1O)OCO4` (some centres undefined) [ISOCEPHALOTAXINE], the IC50 was 15 µg/mL (≈ 47.6 µM).
Compound `COC1=C[C@]23CCC[N@@+]2([O-])C[C@H](O)c2cc4c(cc2[C@@H]3[C@@H]1O)OCO4` has an IC50 of 31 µg/mL (≈ 89.2 µM).
Work on `COC1=C[C@]23CCC[N@+]2([O-])CCc2cc4c(cc2[C@@H]3[C@@H]1O)OCO4` yielded an IC50 of 30 µg/mL (≈ 90.5 µM).
`COC1=C[C@]23CCC[N@@+]2([O-])CCc2cc4c(cc2[C@@H]3[C@@H]1O)OCO4` was tested, and the IC50 was 14 µg/mL (≈ 42.2 µM).

Source: ChEMBL document CHEMBL1158897, “New alkaloids from Cephalotaxus fortunei” (J Nat Prod, 2003)
